Assay: Intracolonic bioavailability in monkeys
Type: in vivo, Cynomologous monkeys
Settings: monkey, whole blood; bioavailability of pregabalin (F %, (SD)) after intracolonic administration, 10 mg-eq pregabalin/kg, suspension, 4 male monkeys, blood LC-MS/MS; salts before crystallization; read-out: Intracolonic Bioavailability Fic (%)
Protocol: Male Cynomologous monkeys weighing about 2.3 kg were used in the studies. Monkeys were fasted overnight prior to the study until 4 hours after dosing. Water was provided ad libitum.
Calcium (3S)-{[(1R)-isobutanoyloxyethoxy]carbonylaminomethyl}-5-methyl-hexanoate (5), calcium (3S)-{[(1S)-isobutanoyloxyisobutoxy]carbonylaminomethyl}-5-methyl-hexanoate (6), or calcium (3S)-{[(1R)-benzoyloxyethoxy]carbonylaminomethyl}-5-methyl-hexanoate (7) (obtained as described in Examples 4, 8, and 12, respectively, and before crystallization according to Examples 13, 14, and 15, respectively) were prepared as a suspension (21.4 mg/mL) in 0.5% methyl cellulose/0.1% Tween-80 in NaH2PO4 pH 7.02.
Calcium (3S)-{[(1R)-isobutanoyloxyethoxy]carbonylaminomethyl}-5-methyl-hexanoate (5), calcium (3S)-{[(1S)-isobutanoyloxyisobutoxy]carbonylaminomethyl}-5-methyl-hexanoate (6), or calcium (3S)-{[(1R)-benzoyloxyethoxy]carbonylaminomethyl}-5-methyl-hexanoate (7) (1 mL/kg; 10 mg-eq pregabalin/kg) were administered intracolonically to 4 monkeys. […]
Blood samples were analyzed by a sensitive and specific LC-MS/MS method for simultaneous determination of (3S)-{[(1R)-isobutanoyloxyethoxy]carbonylaminomethyl}-5-methyl-hexanoate, (3S)-{[(1S)-isobutanoyloxyisobutoxy]carbonylaminomethyl}-5-methyl-hexanoate, or (3S)-{[(1R)-benzoyloxyethoxy]carbonylaminomethyl}-5-methyl-hexanoate; and pregabalin. […]

CC(C)C[C@H](CN)CC(=O)O [Pregabalin, (3S)-aminomethyl-5-methyl-hexanoic acid]
bioavailability: 4%

From patent publication US7868043B2, “Mesophasic forms of (3S)-aminomethyl-5-methyl-hexanoic acid prodrugs and methods of use” (Xenoport, Inc., priority 2008, dated 2011)
